Test results from paper PMC5514901, “Synthesis and evaluation of anthranilamide-based derivatives as FXa inhibitors” (Oncotarget, 2017).

Assays:
human plasma = assay: Prothrombin time (PT) assay; type: biochemical; conditions: concentration doubling prothrombin time in human plasma
Procedure: A commercially available automatic coagulometer (Steellex Science Instrument Co., Ltd., Beijing, China) was employed to measure PT. The clotting times were also measured using the instrument itself, in accordance with the manufacturer's instructions. Increasing concentrations of inhibitor or solvent were added to human plasma and incubated for 3 min at 37°C. Prothrombin time (PT) was determined by automatic coagulometer.

human FXa = biological target: T1, human FXa (Homo sapiens, UniProt P00742); assay: Inhibition activity measurement against FXa (chromogenic substrate CS-11(22)); type: biochemical; conditions: human FXa; for IC50: chromogenic substrate, 37°C, read at 405 nm
T1 construct: purchased Hyphen BioMed
Procedure: The inhibition of FXa was measured using human FXa (Hyphen BioMed, city, Paris, FRA) and chromogenic substrate CS-11(22) (Hyphen BioMed, Paris, FRA) in 384-well microtiter plates at room temperature. […] 2 μL of FXa (56.8 nM), 16 μL of Tris buffer (adjust to pH 7.4 with HCl containing 0.3 M NaCl and 50 mM Tris) and 3 μL of test compound were added to the well, respectively. The negative control was composed of the same mixed solutions except replacing test compound with DMSO. […] After incubated at 37°C for 5 min, 8 μL of FXa substrate solution (3.5 mM) was added and then incubated at 37°C for 25 min. The FXa activity was measured at 405 nm using a SpectraMax M5 (Molecular Devices, Sunnyvale, CA, USA). The IC50 was calculated by the software named SPSS (IBM, North Castle, NY, USA) and the Probit function in it.

human FIIa (thrombin) = test system: human FIIa (thrombin); design: method as in PMID 16305517; conditions: read-out: IC50 against thrombin; cited from earlier work

T1 sequence (P00742 235-488 limits assumed): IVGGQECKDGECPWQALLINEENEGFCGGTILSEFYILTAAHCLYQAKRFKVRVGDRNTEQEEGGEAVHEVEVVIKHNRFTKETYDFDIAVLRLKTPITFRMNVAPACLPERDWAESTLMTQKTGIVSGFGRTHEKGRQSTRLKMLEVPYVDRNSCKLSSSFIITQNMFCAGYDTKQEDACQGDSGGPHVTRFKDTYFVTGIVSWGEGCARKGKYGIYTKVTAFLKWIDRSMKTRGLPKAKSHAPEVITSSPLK
T1 sequence (P00742 41-179 partner limits assumed): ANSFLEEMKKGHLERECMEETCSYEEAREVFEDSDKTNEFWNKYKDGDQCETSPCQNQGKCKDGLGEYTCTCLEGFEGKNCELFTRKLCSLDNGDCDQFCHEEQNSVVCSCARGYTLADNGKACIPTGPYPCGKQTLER

In the case of `O=C(Nc1ccccc1C(=O)Nc1ccc(-n2ccccc2=O)cc1)c1ccc(Br)s1` [6a, 5-bromo-N-(2-((4-(2-oxopyridin-1(2H)-yl)phenyl)carb-amoyl)phenyl)thiophene-2-carboxamide], the melting point is reported as > 250 °C, the “2 × PT (Human)” value (human plasma) is reported as 8.4 µM and the Ki (human FXa) is reported as 20.5 nM. The IC50 (human FXa) was 28.7 nM.
For `Cc1ccc(NC(=O)c2ccc(Br)s2)c(C(=O)Nc2ccc(-n3ccccc3=O)cc2)c1` [6a-b, 5-bromo-N-(4-methyl-2-((4-(2-oxopyridin-1(2H)-yl)ph-enyl)carbamoyl)phenyl)thiophene-2-carboxamide], the melting point was > 250 °C, the “2 × PT (Human)” value (human plasma) was 4.2 µM and the Ki (human FXa) was 13.4 nM. The IC50 (human FXa) was 18.8 nM.
With `O=C(Nc1ccc(Cl)cc1C(=O)Nc1ccc(N2CCOCC2=O)cc1)c1ccc(Br)s1` [6a-e, 5-bromo-N-(4-chloro-2-((4-(3-oxomorpholino)phenyl)carbamoyl)phenyl)thiophene-2-carboxamide] the melting point was > 250 °C, the “2 × PT (Human)” value (human plasma) was 3.8 µM and the IC50 (human FXa) was 125 nM.
In the case of `O=C(Nc1ccccc1C(=O)Nc1ccc(-n2ccccc2=O)cc1)c1ccc(Cl)cc1Cl` [6k, 2,4-dichloro-N-(2-((4-(2-oxopyridin-1(2H)-yl)phenyl)arbamoyl)phenyl)benzamide], the melting point is reported as > 250 °C, the “2 × PT (Human)” value (human plasma) is reported as 16.4 µM and the Ki (human FXa) is reported as 17 nM. The IC50 (human FXa) was 23.8 nM.
For `O=C(Nc1ccc(Cl)cc1C(=O)Nc1ccc(-n2ccccc2=O)cc1)c1ccc(Cl)cc1Cl` [6k-a, 2,4-dichloro-N-(4-chloro-2-((4-(2-oxopyridin-1(2H)-yl)phenyl)carbamoyl)phenyl)benzamide], the melting point was > 250 °C, the “2 × PT (Human)” value (human plasma) was 16.9 µM and the Ki (human FXa) was 58.6 nM. For the same compound, the IC50 (human FXa) was 82 nM.
For `Cc1ccc(NC(=O)c2ccc(Cl)cc2Cl)c(C(=O)Nc2ccc(-n3ccccc3=O)cc2)c1` [6k-b, 2,4-dichloro-N-(4-methyl-2-((4-(2-oxopyridin-1(2H)-yl)phenyl)carbamoyl)phenyl)benzamide], the melting point was > 250 °C, the “2 × PT (Human)” value (human plasma) was 11.3 µM and the Ki (human FXa) was 25.4 nM. The IC50 (human FXa) was 35.5 nM.
In the case of `COc1ccc(C(=O)Nc2c(C)cccc2C(=O)Nc2ccc(N3CCOCC3=O)cc2)cc1` [6l-g, 2-(4-methoxybenzamido)-3-methyl-N-(4-(3-oxomorph-olino)phenyl)benzamide], the melting point is reported as > 250 °C and the IC50 (human FXa) is reported as > 1000 nM.
For `COc1ccc(C(=O)Nc2ccccc2C(=O)Nc2ccc(-n3ccccc3=O)cc2)cc1OC` [6m, 3,4-dimethoxy-N-(2-((4-(2-oxopyridin-1(2H)-yl)phenyl)arbamoyl)phenyl)benzamide], the melting point was > 250 °C and the IC50 (human FXa) was > 1000 nM.
With `COc1cc(C(=O)Nc2ccccc2C(=O)Nc2ccc(-n3ccccc3=O)cc2)cc(OC)c1OC` [6n, 3,4,5-trimethoxy-N-(2-((4-(2-oxopyridin-1(2H)-yl)phenyl)carbamoyl)phenyl)benzamide] the melting point was > 250 °C and the IC50 (human FXa) was > 1000 nM.
For `O=C(Nc1ccccc1C(=O)Nc1ccc(-n2ccccc2=O)cc1)c1ccc(C(F)(F)F)cc1` [6o, N-(4-(2-oxopyridin-1(2H)-yl)phenyl)-2-(4-(trifluoro-methyl)benzamido)benzamide], the melting point was > 250 °C and the IC50 (human FXa) was > 1000 nM.
For `O=C(NC[C@H]1CN(c2ccc(N3CCOCC3=O)cc2)C(=O)O1)c1ccc(Cl)s1` [rivaroxaban, reference compound], the IC50 (human FIIa (thrombin)) is listed as 6900 nM and the “2 × PT (Human)” value (human plasma) is listed as 0.2 µM.
